From publication PMC8151276, “An Integrated Approach toward NanoBRET Tracers for Analysis of GPCR Ligand Engagement” (Molecules, 2021)

Assays:
Type in all cases: binding
NMUR2 = target: T1, NMUR2 (Homo sapiens, UniProt Q9GZQ4); assay: NanoBRET screen HiBiT-NMUR2 in HEK293
T1 construct: purchased Promega (in-house HiBiT-GPCR construct library, NanoBRET)
Procedure: (§1) Each tracer candidate was screened across the entire library of HiBiT-GPCR constructs using NanoBRET as the detection modality. As depicted in Figure 4A, the specificity of interactions was evaluated through decrease in BRET due to competitive displacement of a bound tracer by excess parental compound. Each tracer was analyzed for binding to each HiBiT-GPCR fusion in the absence and in the presence of competing parental compound. Briefly, HEK293 cells were transfected with HiBiT-GPCR constructs diluted into promoterless DNA to reduce expression and maximize translocation to the cell surface. Each tracer candidate was then screened at concentrations of 1 μM and 0.1 μM across cells expressing these fusions. Cells were treated for 1.5 h with tracer either alone or in the presence of 20 μM competing parental compound (i.e., control). BRET was measured upon addition of purified LgBiT and subsequent complementation with HiBiT genetically fused to a GPCR. The specificity of interactions was assessed through a decrease in BRET signal due to competitive displacement of the bound tracer. To further gauge the robustness of these interactions, the fold response over the control (i.e., BRETtracer/BRETcontrol) was calculated. We chose a 1.5-fold response, which translates to ≥7-fold signal over noise as the minimal threshold required to score an interaction as positive. […]. Below we highlight the screening results obtained for our exemplary fluorescent tracers based on Clozapine, Amitriptyline and AZD1283.
(§2) HiBiT-GPCR DNA constructs were diluted in 10 mM Tris pH 8 to a final concentration of 0.01 μg/μL, arrayed in 96-well plates and stored at −20 °C. For transfection, HEK293 cells were suspended in Opti-MEM (without phenol red) supplemented with 2% fetal bovine serum (Seradigm) and 100 units/mL penicillin–streptomycin (Gibco) at a final concentration of 220,000 cells/mL and dispensed into white 96-well plates at 90 μL/well. Subsequent transfections and screens were carried using an Agilent Bravo Automated Liquid Handling Platform. First, the 96-well HiBiT DNA arrays were diluted 25-fold in Opti-MEM (without serum or phenol red) to a final concentration of 0.0004 μg/μL and 20 μL of the diluted DNAs were transferred into new 96-well plates. Next, promoterless carrier DNA (1 μg/μL) was diluted 25-fold (0.04 μg/μL) and then dispensed into the diluted arrays at 20 μL/well. Following brief mixing, Viafect transfection reagent (Promega) diluted 16-fold into Opti-MEM was dispensed into the plates at 40 μL/well. After mixing by pipetting, plates were incubated for 10 min on the pipetting station deck. The DNA-transfection reagent complexes were then added to plates containing cells. To facilitate the screen, 10 μL of DNA-transfection reagent complexes were added in duplicates to the top 4 and bottom 4 rows, resulting in two identical 48-well arrays per plate. Plates with transfected cells were incubated for 18–20 h at 37 °C/5% CO2. A screen of each tracer across the entire library using two different concentrations requires duplicate plates of transfected cells. Depending on the number of tracers being screened, transfections can be scaled up using the same ratios. The next day, for each tracer, four 20× screening solutions in tracer dilution buffer (Promega) were prepared: two duplicates at final concentration of 20 μM and two duplicates at a final concentration of 2 μM. A competing unmodified compound was added to one of each duplicate at a final concentration of 400 μM. The four resulting solutions were diluted 4-fold in Opti-MEM without serum or phenol red to generate 5× solutions (5 µM and 0.5 µM tracer +/− 100 μM competing compound). To screen the library, a BioTek MultiFlo FX liquid dispenser was used to dispense 22.5 µL of tracer solution to the top 4 rows and 22.5 µL tracer + competing compound solution to the 4 bottom rows. Plates were briefly mixed on an orbital shaker and incubated for 1.5 h at room temperature. […]

TACR2 = target: T2, TACR2 (Homo sapiens, UniProt P21452); assay: NanoBRET screen HiBiT-TACR2 in HEK293
T2 construct: purchased Promega (in-house HiBiT-GPCR construct library, NanoBRET)
T2 sequence (P21452 1-398): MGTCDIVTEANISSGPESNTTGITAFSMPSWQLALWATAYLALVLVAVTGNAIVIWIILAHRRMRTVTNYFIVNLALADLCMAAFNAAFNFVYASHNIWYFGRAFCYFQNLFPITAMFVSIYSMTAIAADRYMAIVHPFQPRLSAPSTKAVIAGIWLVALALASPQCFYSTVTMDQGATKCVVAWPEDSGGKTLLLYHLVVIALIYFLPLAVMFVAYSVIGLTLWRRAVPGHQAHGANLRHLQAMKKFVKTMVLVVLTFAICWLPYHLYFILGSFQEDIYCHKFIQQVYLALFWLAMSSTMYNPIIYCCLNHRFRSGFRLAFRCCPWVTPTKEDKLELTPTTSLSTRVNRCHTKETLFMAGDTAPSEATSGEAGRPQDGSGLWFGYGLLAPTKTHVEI
Procedure: as §1, §2

FZD4 = target: T3, FZD4 (Homo sapiens, UniProt Q9ULV1); assay: NanoBRET screen HiBiT-FZD4 in HEK293
T3 construct: purchased Promega (in-house HiBiT-GPCR construct library, NanoBRET)
T3 sequence (Q9ULV1 37-537): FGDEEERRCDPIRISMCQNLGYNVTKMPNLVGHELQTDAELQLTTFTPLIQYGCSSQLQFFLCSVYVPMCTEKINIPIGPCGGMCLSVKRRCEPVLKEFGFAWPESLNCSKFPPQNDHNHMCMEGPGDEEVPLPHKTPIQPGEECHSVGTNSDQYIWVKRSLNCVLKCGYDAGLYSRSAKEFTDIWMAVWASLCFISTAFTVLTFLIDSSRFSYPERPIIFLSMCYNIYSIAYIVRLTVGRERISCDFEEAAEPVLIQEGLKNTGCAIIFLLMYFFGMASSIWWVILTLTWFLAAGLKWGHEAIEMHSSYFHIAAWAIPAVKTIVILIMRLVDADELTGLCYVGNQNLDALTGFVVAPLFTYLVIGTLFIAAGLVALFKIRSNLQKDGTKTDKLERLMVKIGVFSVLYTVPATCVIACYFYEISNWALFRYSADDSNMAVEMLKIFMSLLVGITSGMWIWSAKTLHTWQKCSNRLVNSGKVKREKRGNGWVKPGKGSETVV
Procedure: as §1, §2

[1] = tracer at 0.1μM, listed as amitriptyline-b-2-NB590
[2] = tracer at 1μM, listed as amitriptyline-b-2-NB590

T1 sequence (Q9GZQ4 whole entry): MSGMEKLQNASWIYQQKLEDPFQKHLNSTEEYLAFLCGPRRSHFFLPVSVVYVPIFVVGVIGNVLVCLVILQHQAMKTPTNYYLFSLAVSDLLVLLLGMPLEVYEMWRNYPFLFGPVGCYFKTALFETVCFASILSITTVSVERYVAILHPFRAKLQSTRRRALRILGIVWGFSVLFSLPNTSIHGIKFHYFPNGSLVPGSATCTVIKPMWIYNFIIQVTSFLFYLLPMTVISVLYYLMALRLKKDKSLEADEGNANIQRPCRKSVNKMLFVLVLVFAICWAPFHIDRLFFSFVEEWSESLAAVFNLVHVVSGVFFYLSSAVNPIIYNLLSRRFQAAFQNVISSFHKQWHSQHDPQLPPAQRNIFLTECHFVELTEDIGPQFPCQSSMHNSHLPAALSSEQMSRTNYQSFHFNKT

CN1CCN(C2=Nc3cc(Cl)ccc3Nc3ccc(CNC(=O)CCOCCOCCOCCOCCNC(=O)CCc4ccc5n4[B-](F)(F)[N+]4=C(c6ccc[nH]6)C=CC4=C5)cc32)CC1 [Clozapine-b-2-NB590]
NanoBRET Fold Response (NMUR2; NMUR2, 0.1μM tracer): 0.97 | NanoBRET Fold Response (NMUR2; NMUR2, 1μM tracer): 1.00 | NanoBRET Fold Response (TACR2; TACR2, 0.1μM tracer): 0.97 | NanoBRET Fold Response (FZD4; FZD4, 0.1μM tracer): 0.99 | NanoBRET Fold Response (FZD4; FZD4, 1μM tracer): 1.03

CN(C)CCC=C1c2ccccc2CCc2ccc(C(=O)NCCNC(=O)CCOCCOCCOCCOCCNC(=O)CCc3ccc4n3[B-](F)(F)[N+]3=C(c5ccc[nH]5)C=CC3=C4)cc21 [Amitriptyline-b-2-NB590]
NanoBRET Fold Response (NMUR2; [1]): 0.99 | NanoBRET Fold Response (NMUR2; [2]): 1.00 | NanoBRET Fold Response (TACR2; [1]): 0.86 | NanoBRET Fold Response (TACR2; [2]): 1.17 | NanoBRET Fold Response (FZD4; [1]): 1.12 | NanoBRET Fold Response (FZD4; [2]): 1.19

CCOC(=O)c1cc(C#N)c(N2CCC(C(=O)NS(=O)(=O)Cc3ccccc3/C=C/C(=O)NCCNC(=O)CCc3ccc4n3[B-](F)(F)[N+]3=C(c5ccc[nH]5)C=CC3=C4)CC2)nc1C [AZD1283-1-NB590]
NanoBRET Fold Response (NMUR2; NMUR2, 0.1μM): 1.01 | NanoBRET Fold Response (NMUR2; NMUR2, 1μM): 0.86 | NanoBRET Fold Response (TACR2; TACR2, 0.1μM): 1.09 | NanoBRET Fold Response (TACR2; TACR2, 1μM): 1.04 | NanoBRET Fold Response (FZD4; FZD4, 0.1μM): 1.03 | NanoBRET Fold Response (FZD4; FZD4, 1μM): 1.03

CC(C)N(CC[C@H](c1ccccc1)c1cc(CCNC(=O)CCOCCOCCOCCOCCNC(=O)CCc2ccc3n2[B-](F)(F)[N+]2=C(c4ccc[nH]4)C=CC2=C3)ccc1O)C(C)C [Tolterodine-2-NB590]
NanoBRET Fold Response (NMUR2; NMUR2, tracer 0.1μM): 1.31 | NanoBRET Fold Response (NMUR2; NMUR2, tracer 1μM): 1.07 | NanoBRET Fold Response (TACR2; TACR2, tracer 0.1μM): 0.87 | NanoBRET Fold Response (TACR2; TACR2, tracer 1μM): 1.41 | NanoBRET Fold Response (FZD4; FZD4, tracer 0.1μM): 0.95 | NanoBRET Fold Response (FZD4; FZD4, tracer 1μM): 0.96

CC(C)N(CC[C@H](c1ccccc1)c1cc(CCNC(=O)c2ccc(CNC(=O)CCc3ccc4n3[B-](F)(F)[N+]3=C(c5ccc[nH]5)C=CC3=C4)cc2)ccc1O)C(C)C [Tolterodine-BZ-NB590]
NanoBRET Fold Response (NMUR2; NMUR2, tracer 0.1μM): 1.00 | NanoBRET Fold Response (NMUR2; NMUR2, tracer 1μM): 1.06 | NanoBRET Fold Response (TACR2; TACR2, tracer 0.1μM): 1.38 | NanoBRET Fold Response (TACR2; TACR2, tracer 1μM): 1.40 | NanoBRET Fold Response (FZD4; FZD4, tracer 0.1μM): 0.93 | NanoBRET Fold Response (FZD4; FZD4, tracer 1μM): 1.07

O=C(CCOCCOCCOCCOCCNC(=O)CCc1ccc2n1[B-](F)(F)[N+]1=C(c3ccc[nH]3)C=CC1=C2)NCCCN1CCN(C2=Nc3ccccc3Oc3ccc(Cl)cc32)CC1 [Loxapine-a-2-NB590]
NanoBRET Fold Response (NMUR2; NMUR2, tracer 0.1μM): 1.07 | NanoBRET Fold Response (NMUR2; NMUR2, tracer 1μM): 0.74 | NanoBRET Fold Response (TACR2; TACR2, tracer 0.1μM): 0.86 | NanoBRET Fold Response (TACR2; TACR2, tracer 1μM): 0.64 | NanoBRET Fold Response (FZD4; FZD4, tracer 0.1μM): 0.98 | NanoBRET Fold Response (FZD4; FZD4, tracer 1μM): 0.89

CN1CCN(C2=Nc3cc(Cl)ccc3N(CC(=O)NCCOCCOCCOCCOCCNC(=O)CCc3ccc4n3[B-](F)(F)[N+]3=C(c5ccc[nH]5)C=CC3=C4)c3ccccc32)CC1 [Clozapine-c-2-NB590]
NanoBRET Fold Response (NMUR2; NMUR2, 0.1μM tracer): 1.12 | NanoBRET Fold Response (NMUR2; NMUR2, 1μM tracer): 0.92 | NanoBRET Fold Response (TACR2; TACR2, 0.1μM tracer): 0.93 | NanoBRET Fold Response (TACR2; TACR2, 1μM tracer): 0.88 | NanoBRET Fold Response (FZD4; FZD4, 0.1μM tracer): 1.02 | NanoBRET Fold Response (FZD4; FZD4, 1μM tracer): 0.93
